Columns and labels:
Assay in all cases: relative viability (nuclei count vs DMSO), 5 days (fraction); higher = more cells survive
[1] = compound: COC1=C(C=C(C=C1)C2=CC3=NC=CN3C(=N2)NC4=C(C=CC=N4)C(=O)N)OC [BAY61-3606] + COc1cc2c(Oc3ccc(NC(=O)C4(C(=O)Nc5ccc(F)cc5)CC4)cc3F)ccnc2cc1OCCCN1CCOCC1 [Foretinib] (partner 0.25 µM)
Procedure, shortened: (§1)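 Lung cancer cell lines in 1536-well plates were dosed by pin tool the day after seeding, either with one drug alone or with a fixed anchor-drug dose plus five library-drug doses (not always all listed) in √10 steps. After 5 days, cells were fixed and their nuclei stained in one step (final 0.05% Triton X-100, 1% formaldehyde, 1 ug/ml Hoechst), then counted on 4× images. Relative viability is the nuclei count in treated wells divided by that in vehicle wells. Values are medians of duplicate plates.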

[2] = compound: COC1=C(C=C(C=C1)C2=CC3=NC=CN3C(=N2)NC4=C(C=CC=N4)C(=O)N)OC [BAY61-3606] + O=C(CCCCCCC(=O)Nc1ccccc1)NO [Vorinostat] (partner 1 µM)
Procedure, shortened: as §1

[3] = compound: COc1cccc2c1C(=O)c1c(O)c3c(c(O)c1C2=O)C[C@@](O)(C(=O)CO)C[C@@H]3O[C@H]1C[C@H](N)[C@H](O)[C@H](C)O1 [Doxorubicin] + CC(=O)Nc1cccc(-n2c(=O)n(C3CC3)c(=O)c3c(Nc4ccc(I)cc4F)n(C)c(=O)c(C)c32)c1 [Trametinib] (partner 0.02 µM)
Procedure, shortened: as §1

[4] = compound: COc1cccc2c1C(=O)c1c(O)c3c(c(O)c1C2=O)C[C@@](O)(C(=O)CO)C[C@@H]3O[C@H]1C[C@H](N)[C@H](O)[C@H](C)O1 [Doxorubicin] + CC1(C)CCC(c2ccc(Cl)cc2)=C(CN2CCN(c3ccc(C(=O)NS(=O)(=O)c4ccc(N[C@H](CCN5CCOCC5)CSc5ccccc5)c(S(=O)(=O)C(F)(F)F)c4)cc3)CC2)C1 [Navitoclax] (partner 0.5 µM)
Procedure, shortened: as §1

| Cell Line | relative viability ([1]; first compound 0.02 µM) | relative viability ([1]; first compound 0.06325 µM) | relative viability ([1]; first compound 0.2 µM) | relative viability ([1]; first compound 0.6325 µM) | relative viability ([1]; first compound 2 µM) | relative viability ([2]; first compound 0.02 µM) | relative viability ([2]; first compound 0.06325 µM) | relative viability ([2]; first compound 0.2 µM) | relative viability ([2]; first compound 0.6325 µM) | relative viability ([2]; first compound 2 µM) | relative viability ([3]; first compound 0.001 µM) | relative viability ([3]; first compound 0.003162 µM) | relative viability ([3]; first compound 0.01 µM) | relative viability ([3]; first compound 0.03162 µM) | relative viability ([3]; first compound 0.1 µM) | relative viability ([4]; first compound 0.001 µM) | relative viability ([4]; first compound 0.003162 µM) | relative viability ([4]; first compound 0.01 µM) | relative viability ([4]; first compound 0.03162 µM) | relative viability ([4]; first compound 0.1 µM) |
| --- | --- | --- | --- | --- | --- | --- | --- | --- | --- | --- | --- | --- | --- | --- | --- | --- | --- | --- | --- | --- |
| NCI-H2228 | 0.891 | 0.914 | 0.714 | 0.858 | 0.645 | 0.713 | 0.594 | 0.663 | 0.634 | 0.571 | 0.178 | 0.533 | 0.411 | 0.356 | 0.165 | 1.24 | 0.752 | 0.876 | 0.552 | 0.321 |
| NCI-H2347 | 1.03 | 0.601 | 1.46 | 0.856 | 1.17 | 0.721 | 0.65 | 0.598 | 0.575 | 0.597 | 0.197 | 0.297 | 0.284 | 0.281 | 0.283 | 0.628 | 0.768 | 0.77 | 0.71 | 0.85 |
| NCI-H2405 | 1.06 | 1.05 | 1.11 | 1.11 | 0.867 | 1.17 | 1.02 | 1.15 | 0.968 | 0.824 | 0.595 | 0.548 | 0.601 | 0.446 | 0.584 | – | 0.779 | 0.851 | 0.639 | 0.493 |
| NCI-H3122 | 0.952 | 1.07 | 0.94 | 0.962 | 0.969 | 1.01 | 1.03 | 0.893 | 1.05 | 0.95 | 0.201 | 0.223 | 0.229 | 0.185 | 0.264 | 1.05 | 1.01 | 0.973 | 1.02 | 1.02 |
| PC-3 [JPC-3] | – | 1.03 | 1.08 | 1.06 | 0.949 | 0.849 | 0.668 | 1.04 | 0.834 | 0.789 | 0.614 | 0.628 | 0.687 | 0.632 | 0.741 | 0.746 | 0.79 | 0.703 | 0.802 | 0.819 |
